Laboratory results from patent US8871807B2, “Detergents capable of cleaning, bleaching, sanitizing and/or disinfecting textiles including sulfoperoxycarboxylic acids” (Ecolab USA Inc., priority 2008, dated 2014).
Read-outs that look alike come from different tables or passages of the source.

Key:
Contact angle study = assay type: physicochemical; conditions: concentrate diluted 250 times with DI water (11-SPOUA 85 times)
Protocol: A study was performed to measure the wetting properties of various sulfonated peracids in aqueous solutions, by measuring the contact angle of the individual solution on different surfaces.
A FTA32 Contact Angle Goniometer with image processing by FTA 32 software was used to measure the contact angle. The contact angle was measured on both stainless steel, and polypropylene surfaces. The peracid concentrates shown in the table below were diluted 250 times with DI water. However, the 11-SPOUA was diluted 85 times with DI water, given the lower levels of peracid precursor in the formula.
The results shown are the average of at least three contact angle measurements.

[1] = Coupling ability study, 1-octanoic acid by liquid chromatography; assay type: physicochemical; conditions: for 1-Octanoic acid (ppm) coupled: 0.4 grams 1-octanoic acid added to 20 g peracid solution in hydrogen peroxide, filtered lower phase
Protocol: A study was performed to determine the coupling/hydrotropic properties of various sulfonated peracids in aqueous solutions. The ability of the selected peracids to couple octanoic acid was measured.
Twenty grams (20 g) of each peracid solution was diluted into a beaker containing hydrogen peroxide. […] To each of these solutions, 0.4 grams of 1-octanoic acid was added. The octanoic acid initially floated to the tops of the solutions. The solutions were then stirred for 5-10 minutes with magnetic stir bars at 1,000 rpm. The solutions were then centrifuged for 20 minutes at 3,000-5,000 rpm. The lower phase of each solution was then collected. The lower phases were further clarified by filtration through 0.45 micron syringe filters. All of the filtrates appeared clear and homogenous. The filtered solutions were analyzed by liquid chromatography for 1-octaonic acid.

[2] = Stability of sulfonated peracids in aqueous solution, half time; assay type: physicochemical
Protocol: A study was performed to determine the stability of various sulfonated peracids in aqueous solutions. The sulfonated peracids were compared under the same controlled conditions to determine how the structural differences of the selected peracids impacted stability. The sulfonated peracids studied included both mid-chain sulfonated and terminally sulfonated peracids.
Each peracid was tested at a concentration of 50 ppm under ambient conditions. Each individual solution was prepared from the corresponding peracid concentrate by adding it to a 0.05 M pH 5.0 citrate buffer, and adjusting the final solution pH to 5.0 with the addition of a small amount of caustic.
The peracid concentration over time was measured using a kinetic iodometric titration method. For comparison, 50 ppm peroxyacetic acid (POAA), at the same concentration and under the same conditions, was also included in the stability study. Based on the results seen in FIG. 7, the half time of each individual peracid was estimated and the results are summarized in the table below.

[3] = stated for comparison; cited from earlier work
[4] = 4 weeks, data from U.S. Pat. No. 5,994,284, cited from earlier work
[5] = Storage stability, loss of active oxygen by titrimetry; assay type: physicochemical; conditions: 4 weeks
Protocol: The stability of a sulfoperoxycarboxylic acid of the present invention, i.e., 11-sulfoundecaneperoxoic acid (Compound D), was compared to that of phthalimidoperoxyhexanoic acid (PAP). The stability data for the PAP sample were taken from U.S. Pat. No. 5,994,284, assigned to Clariant GmbH. Samples of the compound of the present invention were stored for four (4) weeks at various temperatures. The loss of active oxygen was measured by titrimetry.

[6] = Powder storage stability at elevated temperature; assay type: physicochemical; conditions: about 140° F.
Protocol: The compositions of the present invention also show enhanced stability compared to conventional peroxygen containing compositions. In some embodiments, the compositions of the present invention are stable for at least about 1 year at room temperature. In some embodiments, the compositions of the present invention are stable at about 100° F. for at least 30 days. In other embodiments, the compositions of the present invention are stable at about 140° F. for at least 30 days. For example, 11-sulfoundecanoic peroxyacid (Compound D) is stable as a powder system at about 140° F. for at least 30 days.

[7] = pH 4
Text: The issue of low solubility when using long chain peracids has been addressed by increasing the pH to above 7. […] Further, bleaching efficacy decreases proportionally with every pH unit increase over about 7.

B. subtilis = assay: Sporicidal efficacy at 14 days, EN 13704; assay type: cell-based; conditions: 30 ppm peroxyoctanoic acid alone; spore species not specified
Protocol: The test method followed was according to European Standard EN 13704: Quantitative Suspension Test for the Evaluation of Sporicidal Activity of Chemical Disinfectants and Antiseptics Used in Food, Industrial, Domestic and Institutional Areas. Generally, a test suspension of bacterial spores in a solution of interfering substance, simulating clean conditions, was added to a prepared sample of the test formulation diluted in hard water. The mixture was maintained at the specific temperature and time desired. At this contact time, an aliquot is taken; the sporicidal action in this portion was immediately neutralized or suppressed by a validated method. The number of surviving bacterial spores in each sample was determined and the reduction in viable counts was calculated. A test was run to determine the stability and sporicidal efficacy of a composition of the present invention against spores. The composition tested included the sulfonated peroleic acid product, and an amount of peroxyoctanoic acid. The test method used was the European Standard EN 13704: Quantitative Suspension Test for the Evaluation of Sporicidal Activity of Chemical Disinfectants and Antiseptics Used in Food, Industrial, Domestic and Institutional Areas, described above.

Mycobacterium bovis BCG = assay type: cell-based; conditions: 300 ppm POOA, pH 6.5, room temperature

O=C(CS(=O)(=O)O)OO [Compound 2-SPOAA, 2-Sulfoperoxyacetic acid]
Contact Angle (degree), Polypropylene (Contact angle study): 75 degree
Contact Angle (degree), Stainless Steel (Contact angle study): 77 degree
1-Octanoic acid (ppm) coupled [1]: 160 ppm
half-life at 50 ppm ([2]; buffer, pH 5): 37 h

CC(=O)OO [POAA, peroxyacetic acid]
percarboxylic acid formation constant (Keq) [3]: 2.70
half-life at 50 ppm ([2]; 50 ppm peracid, 0.05 M citrate buffer pH 5.0, ambient conditions, read-out: t1/2 (converted)): 115 h

O=C(CCCCCN1C(=O)c2ccccc2C1=O)OO [PAP, phthalimidoperoxyhexanoic acid]
Loss of Active Oxygen (%) ([4]; 25 ° C.): 1.4%
Loss of Active Oxygen (%) ([4]; 40 ° C.): 2.0%
Loss of Active Oxygen (%) ([4]; 50 ° C.): 12.0%

O=C(CCCCCS(=O)(=O)O)OO [Compound 6-SPOHXA, 6-sulfoperoxyhexanoic acid]
Contact Angle (degree), Polypropylene (Contact angle study): 84 degree
Contact Angle (degree), Stainless Steel (Contact angle study): 77 degree
1-Octanoic acid (ppm) coupled [1]: 240 ppm
half-life at 50 ppm ([2]; buffer, pH 5): 88 h

O=C(CCCCCCCCCCS(=O)(=O)O)OO [Compound D, 11-sulfoundecaneperoxoic acid]
Contact Angle (degree), Polypropylene (Contact angle study): 77 degree
Contact Angle (degree), Stainless Steel (Contact angle study): 72 degree
1-Octanoic acid (ppm) coupled [1]: 890 ppm
dissolution of peracid solution in hydrogen peroxide ([1]; 20 g of peracid solution diluted into hydrogen peroxide): dissolved only partially
Loss of Active Oxygen (%) ([5]; 38 ° C.): 7.9%
Loss of Active Oxygen (%) ([5]; 50 ° C.): 15.7%
Loss of Active Oxygen (%) ([5]; Room Temp.): 0.78%
stable as a powder system [6]: at least 30 days
solubility [7]: about 1.3%
half-life at 50 ppm ([2]; buffer, pH 5): 91 h

CCCCCCCC(=O)OO [POOA, peroxyoctanoic acid]
reduction of spores (B. subtilis): did not result in a reduction
Log Reduction (Mycobacterium bovis BCG; 2.5 min): 3.48
Log Reduction (Mycobacterium bovis BCG; 5 min): <4.31
